Consider nine compounds from article PMC3499488, “A Potential Peptide Therapeutic Derived from the Juxtamembrane Domain of the Epidermal Growth Factor Receptor” (PLoS ONE, 2012).

Read-outs that look alike come from different tables or passages of the source. Where a SMILES comes first, the peptide text is derived from it. Where only a bound is given, the exact number is not on record here.

Series [1] has as its system MDA-MB-231 cells. Briefly: Cell viability assay (CellTiter-Glo). The class given is cell-based, human. The text has this: Assays are run in triplicate.
(Cellular ATP, detected with luciferase, serves as a proxy for viable cell number.)

Series [2] deals with MDA-MB-231 cells. The series can be described thus: Cellular entry of FAM-labeled peptides, live-cell fluorescent confocal microscopy. In kind it is cell-based, human. Particulars: N-terminally FAM-labeled peptide, monitored up to 90 minutes and/or overnight incubation, confocal fluorescence. On the procedure:
(§1) MDA-MB-231 cells (1×10^5 cells per plate) were plated on 35 mm glass-bottom plates (MatTek Corporation, Ashland, MA), allowed to adhere overnight, then serum starved overnight and analyzed the following day in HBSS (Hank’s balanced salt solution). For real-time uptake of the FAM-labeled peptides, after recording background images, the FAM-labeled peptides were added and cells were imaged every two minutes over approximately 30 minutes. After 30 minutes, images were taken less frequently. Images from representative timepoints are shown. For overnight treatment, the cells were treated in serum-starved media, exchanged into HBSS the following day and imaged.

In a further series the test system is SK-N-MC cells. Briefly: Cellular entry of FAM-labeled peptide, fluorescent confocal microscopy. In kind it is cell-based, human. Particulars: FAM-labeled peptide 1.5 µM, serum starved cells, confocal fluorescence. The protocol: as §1
(§2) FAM-TE-64562 enters in SK-N-MC cells without any effect of EGF pretreatment. Confocal images of overnight serum starved MDA-MB-231 cells before treatment (0 min) and treated for 90 minutes (A) with 5.0 µM […], (B) with 1.25 µM FAM-Tat or (C) with 2.5 µM FAM-Tat for 60 minutes. (D) SK-N-MC were serum starved overnight and treated with FAM-TE-64562 (1.5 µM) for 16 minutes. (E) NR6 cells MC were serum starved overnight and treated with FAM-TE-64562 (5 µM) for 20 minutes. All scale bars are 20 µm. (TIF) Click here for additional data file.

The test system of another series is NR6 cells. The description is as above. Particulars: FAM-labeled peptide 5 µM, serum starved cells, confocal fluorescence. The class given is cell-based. On the procedure:
as §1, §2

Where [3] appears, read: serum starved overnight (0.1% BSA, no FBS), 24 h treatment, CellTiter-Glo, mean ± S.D. of at least three independent experiments, read-out: EC50± S.D.

For the compound `CC[C@H](C)[C@H](NC(=O)[C@H](Cc1c[nH]cn1)NC(=O)[C@H](CCCNC(=N)N)NC(=O)[C@H](CCCNC(=N)N)NC(=O)[C@@H](N)CCCNC(=N)N)C(=O)N[C@H](C(=O)N[C@@H](CCCNC(=N)N)C(=O)N[C@@H](CCCCN)C(=O)N[C@@H](CCCNC(=N)N)C(=O)N[C@H](C(=O)N[C@@H](CC(C)C)C(=O)N[C@@H](CCCNC(=N)N)C(=O)N[C@@H](CCCNC(=N)N)C(=O)N[C@@H](CC(C)C)C(=O)N[C@@H](CC(C)C)C(=O)N[C@@H](CCC(N)=O)C(=O)N[C@@H](CCC(=O)O)C(=O)N[C@@H](CCCNC(=N)N)C(=O)O)[C@@H](C)O)C(C)C` [E-64562] (H-RRRHIVRKRTLRRLLQER-OH), the EC50 (commonly the concentration giving half of the maximal effect) in the series on MDA-MB-231 cells [1] (24 h) was > 100 µM.

For the compound `CC[C@H](C)[C@H](NC(=O)[C@H](CCCNC(=N)N)NC(=O)[C@H](CC(C)C)NC(=O)[C@H](CCC(=O)O)NC(=O)[C@H](CCC(=O)O)NC(=O)[C@H](CC(C)C)NC(=O)[C@H](C)NC(=O)[C@H](CCCNC(=N)N)NC(=O)[C@H](CCC(=O)O)NC(=O)[C@H](CCC(=O)O)NC(=O)[C@@H](NC(=O)[C@H](CCCNC(=N)N)NC(=O)[C@H](C)NC(=O)[C@H](CCCNC(=N)N)NC(=O)[C@H](CCC(=O)O)NC(=O)[C@H](CCC(=O)O)NC(=O)CNC(=O)[C@H](CCCNC(=N)N)NC(=O)[C@H](CCCNC(=N)N)NC(=O)[C@H](CCCNC(=N)N)NC(=O)[C@H](CCC(N)=O)NC(=O)[C@H](CCCNC(=N)N)NC(=O)[C@H](CCCNC(=N)N)NC(=O)[C@H](CCCCN)NC(=O)[C@H](CCCCN)NC(=O)[C@@H](N)CCCNC(=N)N)C(C)C)C(=O)N[C@@H](CCC(=O)O)C(=O)N[C@@H](CCC(=O)O)C(=O)O` [T-control] (H-RKKRRQRRRGEERARVEERALEELRIEE-OH), the EC50 with MDA-MB-231 cells [1] (setting [3]) was > 100 µM.

For the compound `N=C(N)NCCC[C@H](NC(=O)[C@H](CCCNC(=N)N)NC(=O)[C@H](CCCNC(=N)N)NC(=O)[C@H](CCC(N)=O)NC(=O)[C@H](CCCNC(=N)N)NC(=O)[C@H](CCCNC(=N)N)NC(=O)[C@H](CCCCN)NC(=O)[C@H](CCCCN)NC(=O)[C@@H](N)CCCNC(=N)N)C(=O)NCC(=O)O` [Tat, reference compound] (H-RKKRRQRRRG-OH), the EC50 with MDA-MB-231 cells [1] (setting [3]) is > 100 µM.

On to `CC[C@H](C)[C@H](NC(=O)[C@H](Cc1c[nH]cn1)NC(=O)[C@H](CCCNC(=N)N)NC(=O)[C@H](CCCNC(=N)N)NC(=O)[C@H](CCCNC(=N)N)NC(=O)c1ccc2c(c1)C(=O)OC21c2ccc(O)cc2Oc2cc(O)ccc21)C(=O)N[C@H](C(=O)N[C@@H](CCCNC(=N)N)C(=O)N[C@@H](CCCCN)C(=O)N[C@@H](CCCNC(=N)N)C(=O)N[C@H](C(=O)N[C@@H](CC(C)C)C(=O)N[C@@H](CCCNC(=N)N)C(=O)N[C@@H](CCCNC(=N)N)C(=O)N[C@@H](CC(C)C)C(=O)N[C@@H](CC(C)C)C(=O)N[C@@H](CCC(N)=O)C(=O)N[C@@H](CCC(=O)O)C(=O)N[C@@H](CCCNC(=N)N)C(=O)O)[C@@H](C)O)C(C)C` [FAM-conjugated E-64562] (HELM PEPTIDE1{[O=C1OC2(c3ccc(O)cc3Oc3cc(O)ccc32)c2ccc(C(=O)[*:2])cc21].R.R.R.H.I.V.R.K.R.T.L.R.R.L.L.Q.E.R}$$$$V2.0), for which the “fluorescence within the interior of the cell” value in the series with MDA-MB-231 cells [2] is listed as “did not display any fluorescence within the interior of the cell”.

`N=C(N)NCCC[C@H](NC(=O)c1ccc2c(c1)C(=O)OC21c2ccc(O)cc2Oc2cc(O)ccc21)C(=O)N[C@@H](CCCCN)C(=O)N[C@@H](CCCCN)C(=O)N[C@@H](CCCNC(=N)N)C(=O)N[C@@H](CCCNC(=N)N)C(=O)N[C@@H](CCC(N)=O)C(=O)N[C@@H](CCCNC(=N)N)C(=O)N[C@@H](CCCNC(=N)N)C(=O)N[C@@H](CCCNC(=N)N)C(=O)NCC(=O)O` [FAM-conjugated Tat, reference compound] (HELM PEPTIDE1{[O=C1OC2(c3ccc(O)cc3Oc3cc(O)ccc32)c2ccc(C(=O)[*:2])cc21].R.K.K.R.R.Q.R.R.R.G}$$$$V2.0): in the series on MDA-MB-231 cells [2], the “fluorescence within the interior of the cell” value was “did not display any fluorescence within the interior of the cell”.

Regarding `CC[C@H](C)[C@H](NC(=O)[C@H](CCCNC(=N)N)NC(=O)[C@H](CC(C)C)NC(=O)[C@H](CC(C)C)NC(=O)[C@H](C)NC(=O)[C@H](CCC(N)=O)NC(=O)[C@H](CC(N)=O)NC(=O)[C@@H]1CCCN1C(=O)[C@H](C)NC(=O)[C@H](CCC(=O)O)NC(=O)CNC(=O)[C@H](CO)NC(=O)[C@@H]1CCCN1C(=O)[C@@H](NC(=O)[C@H](CC(C)C)NC(=O)[C@@H]1CCCN1C(=O)[C@H](CCC(=O)O)NC(=O)[C@@H](NC(=O)CNC(=O)[C@H](CCCNC(=N)N)NC(=O)[C@H](CCCNC(=N)N)NC(=O)[C@H](CCCNC(=N)N)NC(=O)[C@H](CCC(N)=O)NC(=O)[C@H](CCCNC(=N)N)NC(=O)[C@H](CCCNC(=N)N)NC(=O)[C@H](CCCCN)NC(=O)[C@H](CCCCN)NC(=O)[C@@H](N)CCCNC(=N)N)C(C)C)[C@@H](C)O)C(=O)O` [TE-66482] (H-RKKRRQRRRGVEPLTPSGEAPNQALLRI-OH), the EC50 in the series on MDA-MB-231 cells [1] (setting [3]) is > 100 µM.

As for `CC[C@H](C)[C@H](NC(=O)[C@H](Cc1c[nH]cn1)NC(=O)[C@H](CCCNC(=N)N)NC(=O)[C@H](CCCNC(=N)N)NC(=O)[C@H](CCCNC(=N)N)NC(=O)CNC(=O)[C@H](CCCNC(=N)N)NC(=O)[C@H](CCCNC(=N)N)NC(=O)[C@H](CCCNC(=N)N)NC(=O)[C@H](CCC(N)=O)NC(=O)[C@H](CCCNC(=N)N)NC(=O)[C@H](CCCNC(=N)N)NC(=O)[C@H](CCCCN)NC(=O)[C@H](CCCCN)NC(=O)[C@H](CCCNC(=N)N)NC(=O)c1ccc2c(c1)C(=O)OC21c2ccc(O)cc2Oc2cc(O)ccc21)C(=O)N[C@H](C(=O)N[C@@H](CCCNC(=N)N)C(=O)N[C@@H](CCCCN)C(=O)N[C@@H](CCCNC(=N)N)C(=O)N[C@H](C(=O)N[C@@H](CC(C)C)C(=O)N[C@@H](CCCNC(=N)N)C(=O)N[C@@H](CCCNC(=N)N)C(=O)N[C@@H](CC(C)C)C(=O)N[C@@H](CC(C)C)C(=O)N[C@@H](CCC(N)=O)C(=O)N[C@@H](CCC(=O)O)C(=O)N[C@@H](CCCNC(=N)N)C(=O)O)[C@@H](C)O)C(C)C` [FAM-conjugated TE-64562] (HELM PEPTIDE1{[O=C1OC2(c3ccc(O)cc3Oc3cc(O)ccc32)c2ccc(C(=O)[*:2])cc21].R.K.K.R.R.Q.R.R.R.G.R.R.R.H.I.V.R.K.R.T.L.R.R.L.L.Q.E.R}$$$$V2.0), the “time until peptide entered cells” value in the series with SK-N-MC cells and in the series on NR6 cells was ≤ 15 min each time.

Turning to `CC[C@H](C)[C@H](NC(=O)[C@H](CCCNC(=N)N)NC(=O)[C@H](CC(C)C)NC(=O)[C@H](CC(C)C)NC(=O)[C@H](C)NC(=O)[C@H](CCC(N)=O)NC(=O)[C@H](CC(N)=O)NC(=O)[C@@H]1CCCN1C(=O)[C@H](C)NC(=O)[C@H](CCC(=O)O)NC(=O)CNC(=O)[C@H](CO)NC(=O)[C@@H]1CCCN1C(=O)[C@@H](NC(=O)[C@H](CC(C)C)NC(=O)[C@@H]1CCCN1C(=O)[C@H](CCC(=O)O)NC(=O)[C@@H](NC(=O)CNC(=O)[C@H](CCCNC(=N)N)NC(=O)[C@H](CCCNC(=N)N)NC(=O)[C@H](CCCNC(=N)N)NC(=O)[C@H](CCC(N)=O)NC(=O)[C@H](CCCNC(=N)N)NC(=O)[C@H](CCCNC(=N)N)NC(=O)[C@H](CCCCN)NC(=O)[C@H](CCCCN)NC(=O)[C@H](CCCNC(=N)N)NC(=O)c1ccc2c(c1)C(=O)OC21c2ccc(O)cc2Oc2cc(O)ccc21)C(C)C)[C@@H](C)O)C(=O)O` [FAM-labeled TE-66482] (HELM PEPTIDE1{[O=C1OC2(c3ccc(O)cc3Oc3cc(O)ccc32)c2ccc(C(=O)[*:2])cc21].R.K.K.R.R.Q.R.R.R.G.V.E.P.L.T.P.S.G.E.A.P.N.Q.A.L.L.R.I}$$$$V2.0), the “fluorescence within the interior of the cell” value in the series on MDA-MB-231 cells [2] is listed as “did not display any fluorescence within the interior of the cell”.

In the case of `CC(C)C[C@H](NC(=O)[C@H](CC(C)C)NC(=O)[C@H](CCCNC(=N)N)NC(=O)[C@H](CCCNC(=N)N)NC(=O)[C@H](C)NC(=O)[C@H](C)NC(=O)[C@H](CCCNC(=N)N)NC(=O)[C@H](CCCCN)NC(=O)[C@H](CCCNC(=N)N)NC(=O)[C@H](C)NC(=O)[C@H](C)NC(=O)[C@H](Cc1c[nH]cn1)NC(=O)[C@H](CCCNC(=N)N)NC(=O)[C@H](CCCNC(=N)N)NC(=O)[C@H](CCCNC(=N)N)NC(=O)CNC(=O)[C@H](CCCNC(=N)N)NC(=O)[C@H](CCCNC(=N)N)NC(=O)[C@H](CCCNC(=N)N)NC(=O)[C@H](CCC(N)=O)NC(=O)[C@H](CCCNC(=N)N)NC(=O)[C@H](CCCNC(=N)N)NC(=O)[C@H](CCCCN)NC(=O)[C@H](CCCCN)NC(=O)[C@@H](N)CCCNC(=N)N)C(=O)N[C@@H](C)C(=O)N[C@@H](C)C(=O)N[C@@H](CCCNC(=N)N)C(=O)O` [T-poly-Ala] (H-RKKRRQRRRGRRRHAARKRAARRLLAAR-OH), the EC50 in the series with MDA-MB-231 cells [1] (setting [3]) is > 100 µM.
